Laboratory results taken from paper PMC9228270, “Design, Synthesis, In Silico Studies and Inhibitory Activity towards Bcr-Abl, BTK and FLT3-ITD of New 2,6,9-Trisubstituted Purine Derivatives as Potential Agents for the Treatment of Leukaemia” (Pharmaceutics, 2022).
Values joined by “and” are separate entries in the source; they are usually repeats but may differ in a detail not shown here. Identical values can stand only once.

Assays:
[1] = molecular target: Bcr-Abl1 (Homo sapiens, UniProt P00519); assay: Recombinant kinase radioassay, Abl; format: biochemical; conditions: ATP 1 µM, at least three independent experiments, range 0.01–100 µM
Bcr-Abl1, sequence (P00519 27-1130): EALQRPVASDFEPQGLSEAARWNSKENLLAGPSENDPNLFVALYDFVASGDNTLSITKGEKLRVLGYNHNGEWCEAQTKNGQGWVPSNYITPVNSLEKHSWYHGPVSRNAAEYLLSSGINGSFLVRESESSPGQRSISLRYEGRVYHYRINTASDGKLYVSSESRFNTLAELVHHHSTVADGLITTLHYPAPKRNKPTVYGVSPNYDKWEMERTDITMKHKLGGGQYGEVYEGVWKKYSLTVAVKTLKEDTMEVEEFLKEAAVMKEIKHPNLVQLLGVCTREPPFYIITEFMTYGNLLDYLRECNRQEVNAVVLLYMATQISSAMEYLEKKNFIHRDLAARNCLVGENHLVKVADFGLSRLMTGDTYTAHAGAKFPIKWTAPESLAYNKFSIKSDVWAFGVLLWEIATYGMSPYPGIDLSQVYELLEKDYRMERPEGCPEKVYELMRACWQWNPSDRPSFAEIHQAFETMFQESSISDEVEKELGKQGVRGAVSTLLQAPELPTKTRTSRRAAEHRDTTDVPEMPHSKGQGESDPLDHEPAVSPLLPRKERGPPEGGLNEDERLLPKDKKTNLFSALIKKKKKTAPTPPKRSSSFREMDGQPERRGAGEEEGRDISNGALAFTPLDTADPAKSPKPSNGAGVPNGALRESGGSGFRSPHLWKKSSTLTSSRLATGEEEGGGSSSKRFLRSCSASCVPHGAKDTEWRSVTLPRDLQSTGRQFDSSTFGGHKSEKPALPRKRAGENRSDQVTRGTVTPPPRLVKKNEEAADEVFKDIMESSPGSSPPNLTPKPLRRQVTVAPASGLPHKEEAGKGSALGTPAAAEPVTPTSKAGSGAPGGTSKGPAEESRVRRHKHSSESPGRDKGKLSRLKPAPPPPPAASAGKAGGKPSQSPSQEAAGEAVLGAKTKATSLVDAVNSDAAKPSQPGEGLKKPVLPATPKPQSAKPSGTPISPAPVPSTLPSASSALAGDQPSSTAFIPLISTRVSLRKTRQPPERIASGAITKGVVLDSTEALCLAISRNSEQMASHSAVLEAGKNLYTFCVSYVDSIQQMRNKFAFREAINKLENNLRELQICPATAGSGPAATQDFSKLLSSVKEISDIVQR
Method: (§1) Recombinant kinase inhibition was measured using standard radioassay. Bcr-Abl1 and Cdk-2/cyclin E kinases were produced in-house, FLT3-ITD and BTK were purchased from ProQinase. The kinases were assayed with suitable substrates (500 µM peptide […] for Abl, 1 mg/mL histone H1 for Cdk-2, 100 µM poly (Glu:Tyr; 4:1)) in the presence of ATP (1 µM for Bcr-Abl, 15 µM for Cdk-2 and BTK), 0.05 µCi [γ-^33P]ATP and the test compound in reaction buffer (60 mM HEPES-NaOH, pH 7.5, 3 mM MgCl2, 3 mM MnCl2, 3 µM Na orthovanadate, 1.2 mM DTT, 2.5 µg/50 µL PEG20.000). The reactions were stopped by adding 3% aq. H3PO4. P-81 phosphocellulose (Whatman) was used to separate phosphorylated substrates. Kinase activity was quantified using a FLA-7000 digital image analyser.

[2] = molecular target: T1, BTK (Homo sapiens, UniProt Q06187); assay: Recombinant kinase radioassay, BTK; format: biochemical; conditions: recombinant kinase, radioassay, ATP 15 µM; at least three independent experiments, range 0.01–100 µM; read-out: IC50 BTK
T1 construct: purchased ProQinase
T1 sequence (Q06187 whole entry): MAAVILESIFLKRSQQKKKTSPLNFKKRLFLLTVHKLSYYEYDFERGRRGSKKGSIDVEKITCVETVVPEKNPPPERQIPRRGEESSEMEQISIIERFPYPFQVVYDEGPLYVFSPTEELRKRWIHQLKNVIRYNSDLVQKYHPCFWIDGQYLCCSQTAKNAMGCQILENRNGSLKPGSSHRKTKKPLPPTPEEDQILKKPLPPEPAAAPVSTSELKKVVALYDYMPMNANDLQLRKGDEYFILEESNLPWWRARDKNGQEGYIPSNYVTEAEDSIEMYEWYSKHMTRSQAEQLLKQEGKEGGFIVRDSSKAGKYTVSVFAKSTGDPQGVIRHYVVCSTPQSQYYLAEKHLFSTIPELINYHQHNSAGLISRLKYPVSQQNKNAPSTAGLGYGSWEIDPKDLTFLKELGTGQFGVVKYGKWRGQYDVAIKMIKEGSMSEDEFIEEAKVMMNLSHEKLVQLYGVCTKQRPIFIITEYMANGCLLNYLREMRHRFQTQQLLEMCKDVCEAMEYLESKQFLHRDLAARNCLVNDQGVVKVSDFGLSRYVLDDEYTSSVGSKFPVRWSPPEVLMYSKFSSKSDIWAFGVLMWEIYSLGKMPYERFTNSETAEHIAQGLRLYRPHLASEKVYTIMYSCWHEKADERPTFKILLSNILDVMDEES
Method: as §1

[3] = molecular target: T2, FLT3-ITD (Homo sapiens, UniProt P36888, ITD); assay: Recombinant kinase radioassay, FLT3-ITD; format: biochemical; conditions: recombinant kinase, radioassay; at least three independent experiments, range 0.01–100 µM; read-out: IC50 FLT3-ITD
T2 sequence (P36888 27-993): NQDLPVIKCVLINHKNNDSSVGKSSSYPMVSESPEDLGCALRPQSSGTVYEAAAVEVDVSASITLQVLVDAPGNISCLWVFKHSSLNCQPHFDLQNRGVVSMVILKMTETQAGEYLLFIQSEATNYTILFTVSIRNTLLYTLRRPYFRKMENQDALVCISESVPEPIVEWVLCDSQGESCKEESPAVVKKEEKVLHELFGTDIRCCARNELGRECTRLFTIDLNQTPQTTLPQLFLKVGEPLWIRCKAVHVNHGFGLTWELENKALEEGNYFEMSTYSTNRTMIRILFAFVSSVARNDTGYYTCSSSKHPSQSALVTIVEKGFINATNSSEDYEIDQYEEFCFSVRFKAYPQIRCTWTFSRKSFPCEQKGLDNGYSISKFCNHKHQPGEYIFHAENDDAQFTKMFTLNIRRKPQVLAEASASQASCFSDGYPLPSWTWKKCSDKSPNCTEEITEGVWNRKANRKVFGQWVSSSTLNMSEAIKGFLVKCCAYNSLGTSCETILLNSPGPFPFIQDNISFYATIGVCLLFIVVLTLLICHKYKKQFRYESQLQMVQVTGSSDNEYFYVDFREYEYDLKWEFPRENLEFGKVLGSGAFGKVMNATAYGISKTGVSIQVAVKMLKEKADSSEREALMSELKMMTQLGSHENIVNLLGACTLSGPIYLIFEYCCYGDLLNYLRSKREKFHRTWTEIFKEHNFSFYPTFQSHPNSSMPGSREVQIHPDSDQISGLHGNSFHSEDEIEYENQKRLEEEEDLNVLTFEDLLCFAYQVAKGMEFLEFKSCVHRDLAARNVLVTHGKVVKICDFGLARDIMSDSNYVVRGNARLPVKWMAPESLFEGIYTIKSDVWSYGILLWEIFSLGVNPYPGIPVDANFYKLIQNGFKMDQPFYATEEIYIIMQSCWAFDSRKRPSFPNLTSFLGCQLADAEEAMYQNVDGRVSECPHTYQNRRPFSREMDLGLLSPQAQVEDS
Method: as §1

[4] = molecular target: T3, Cdk-2/cyclin E (Homo sapiens, UniProt P24941); assay: Recombinant kinase radioassay, Cdk-2/cyclin E; format: biochemical; conditions: ATP 15 µM, at least three independent experiments, range 0.01–100 µM
T3 construct: made in house
Method: as §1

[5] = test system: K562; assay: Cytotoxicity assay (resazurin), K562; format: cell-based; conditions: Homo sapiens, 72 h, three independent experiments, range 0.1 to 25 µM
Method: (§2) Cytotoxicity assays for the purines were quantified using the resazurin method, a dye to measure redox reactions occurring in the mitochondria of live cells. The cells were treated by tested compounds (in triplicate, six different doses) for 72 h.

[6] = test system: HL-60; assay: Cytotoxicity assay (resazurin), HL-60; format: cell-based; conditions: Homo sapiens, 72 h, three independent experiments, range 0.1 to 25 µM
Method: as §2

[7] = test system: MV4-11; assay: Cytotoxicity assay (resazurin), MV4-11; format: cell-based; conditions: Homo sapiens, 72 h, three independent experiments, range 0.1 to 25 µM
Method: as §2

[8] = test system: Ramos; assay: Cytotoxicity assay (resazurin), Ramos; format: cell-based; conditions: Homo sapiens, 72 h, three independent experiments, range 0.1 to 25 µM
Method: as §2

[9] = test system: CEM; assay: Cytotoxicity assay (resazurin), CEM; format: cell-based; conditions: Homo sapiens, CCRF-CEM, 72 h, three independent experiments, range 0.1 to 25 µM
Method: as §2

Row | Compound | IC50 [1] [nM] | IC50 [2] | IC50 [3] [nM] | IC50 [4] [nM] | GI50 [5] [nM] | GI50 [6] [nM] | GI50 [7] [nM] | GI50 [8] [nM] | GI50 [9] [nM] | melting point [°C]
1 | CN1CCN(c2ccc(Nc3nc(Nc4ccc([N+](=O)[O-])cc4)c4ncn(CC5CC5)c4n3)cc2)CC1 [Compound 4j, 9-(Cyclopropylmethyl)-N^2-(4-(4-methylpiperazin-1-yl)phenyl)-N^6-(4-nitrophenyl)-9H-purine-2,6-diamine] | 540 ± 20 | 940 ± 40 nM | 530 | 23800 ± 6050 | 2840 ± 1040 | 420 ± 80 | 2210 ± 710 | 1300 ± 500 | 2520 ± 290 | 162 to 163
2 | CN1CCN(c2ccc(Nc3nc(Nc4ccc(OC(F)(F)F)c([N+](=O)[O-])c4)c4ncn(CC5CC5)c4n3)cc2)CC1 [Compound 4o, 9-(Cyclopropylmethyl)-N^2-(4-(4-methylpiperazin-1-yl)phenyl)-N^6-(3-nitro-4-(trifluoromethoxy)phenyl)-9H-purine-2,6-diamine] | 440 ± 120 | 5030 ± 990 nM | 2670 | 12600 ± 2120 | 2600 ± 1250 | 1680 ± 10 | 1490 ± 330 | 4460 ± 380 | 14800 ± 1320 | 144 to 145
3 | CCCCCCn1cnc2c(Nc3cccc(F)c3)nc(Nc3ccc(N4CCN(C)CC4)cc3)nc21 [Compound 5h, N^6-(3-Fluorophenyl)-9-hexyl-N^2-(4-(4-methylpiperazin-1-yl)phenyl)-9H-purine-2,6-diamine] | > 100000 | 320 ± 10 nM | 2310 | 80800 ± 12500 | 24700 ± 410 | 8770 ± 3840 | 3540 ± 1530 | > 25000 | > 25000 | 147.1 to 149.9
4 | CCCCCCn1cnc2c(Nc3ccccc3)nc(Nc3ccc(N4CCN(C)CC4)cc3)nc21 [Compound 5g, 9-Hexyl-N^2-(4-(4-methylpiperazin-1-yl)phenyl)-N^6-phenyl-9H-purine-2,6-diamine] | 9820 ± 1870 | 910 ± 20 nM | 1910 | 27900 ± 1040 | 15500 ± 4980 | 6110 ± 760 | 4270 ± 1450 | 22500 ± 1230 | 34700 ± 1370 | 155.8 to 160
5 | CCCCCn1cnc2c(Nc3ccccc3)nc(Nc3ccc(N4CCN(C)CC4)cc3)nc21 [Compound 5d, N^2-(4-(4-Methylpiperazin-1-yl)phenyl)-9-pentyl-N^6-phenyl-9H-purine-2,6-diamine] | 1230 ± 20 | < 580 nM and 420 nM | 460 | 31100 ± 2910 | 6700 ± 2480 | 3980 ± 1060 | 1280 ± 380 | 13800 ± 3130 | 19100 ± 3390 | 138.5 to 141.3
6 | CN1CCN(c2ccc(Nc3nc(Nc4cccc(C(F)(F)F)c4)c4ncn(CC5CC5)c4n3)cc2)CC1 [Compound 4d, 9-(Cyclopropylmethyl)-N^2-(4-(4-methylpiperazin-1-yl)phenyl)-N^6-(3-(trifluoromethyl)phenyl)-9H-purine-2,6-diamine] | 1780 ± 70 | 22700 ± 2880 nM | 1800 | 15500 ± 1700 | 4510 ± 360 | 720 ± 160 | 2840 ± 290 | 3830 ± 100 | 23780 ± 80 | 134 to 135
7 | CN1CCN(c2ccc(Nc3nc(Nc4cccc([N+](=O)[O-])c4)c4ncn(CC5CC5)c4n3)cc2)CC1 [Compound 4g, 9-(Cyclopropylmethyl)-N^2-(4-(4-methylpiperazin-1-yl)phenyl)-N^6-(3-nitrophenyl)-9H-purine-2,6-diamine] | 110 ± 10 | 1360 ± 160 nM | 1250 | 5620 ± 520 | 2930 ± 590 | 8510 ± 1790 | 1980 ± 460 | 4870 ± 10 | 11400 ± 3930 | 165 to 166
8 | CN1CCN(c2ccc(Nc3nc(Nc4cccc(Cl)c4)c4ncn(CC5CC5)c4n3)cc2)CC1 [Compound 4b, N^6-(3-Chlorophenyl)-9-(cyclopropylmethyl)-N^2-(4-(4-methylpiperazin-1-yl)phenyl)-9H-purine-2,6-diamine] | 120 ± 30 | 1280 ± 180 nM | 1120 | 20000 ± 2070 | 1990 ± 820 | 1930 ± 1050 | 1940 ± 160 | 10600 ± 3080 | 19000 ± 1070 | 152 to 153
9 | CN1CCN(c2ccc(Nc3nc(Nc4ccc(Cl)c(F)c4)c4ncn(CC5CC5)c4n3)cc2)CC1 [Compound 4l, N^6-(4-Chloro-3-fluorophenyl)-9-(cyclopropylmethyl)-N^2-(4-(4-methylpiperazin-1-yl)phenyl)-9H-purine-2,6-diamine] | 200 ± 50 | 880 ± 190 nM | 1030 | 26600 ± 3370 | 3450 ± 1610 | 3220 ± 740 | 2560 ± 640 | 11200 ± 2640 | 15400 ± 550 | 149 to 150
10 | Cc1cccc(Nc2nc(Nc3ccc(N4CCN(C)CC4)cc3)nc3c2ncn3CC2CC2)c1 [Compound 4c, 9-(Cyclopropylmethyl)-N^2-(4-(4-methylpiperazin-1-yl)phenyl)-N^6-(m-tolyl)-9H-purine-2,6-diamine] | 100 | 1300 ± 20 nM | 1500 | 22900 ± 2080 | 2860 ± 760 | 9790 ± 870 | 1420 ± 230 | 12500 ± 480 | 16400 ± 360 | 135 to 137
